Values quoted from earlier work as cited in patent US6692771B2, “Emulsions as solid dosage forms for oral administration” (CIMA Labs Inc., priority 2001, dated 2004).

Conditions: orally administered dose; average value given in parentheses

Molecule	average bioavailability
methyldopa	25%
Oc1ccc2c3c1O[C@H]1[C@@H](O)CC[C@@]4(O)[C@@H](C2)N(CC2CCC2)CC[C@]314 [nalbuphine]	approximately 17%
